Data: patent publication US20240408008A1, “AN IN-SITU GELLING ENEMA OF RIFAMYCIN FOR TREATING POUCHITIS AND DISTAL ULCERATIVE COLITIS” (COSMO TECHNOLOGIES LTD., priority 2021, published 2024)
≈ marks a conversion by molar mass, not a printed value.

Columns and labels:
K. pneumoniae = assay: MIC, broth dilution; format: cell-based; conditions: Klebsiella pneumoniae, aerobic
Escherichia coli = assay: MIC, broth dilution; format: cell-based; conditions: aerobic
E. faecalis = assay: MIC, broth dilution; format: cell-based; conditions: Enterococcus faecalis, aerobic
Bifidobacterium breve = assay: MIC, broth dilution; format: cell-based; conditions: DSM20091; Bifidobacterium breve (DSM 20091); anaerobic
B. bifidum = assay: MIC, broth dilution; format: cell-based; conditions: Bifidobacterium bifidum, DSM20082; B. bifidum (DSM 20082); anaerobic
F. nucleatum = assay: MIC, broth dilution; format: cell-based; conditions: Fusobacterium nucleatum, anaerobic
[1] = system: Aggregatibacter actinomycetemcomitans; assay: MIC, broth dilution; format: cell-based; conditions: DSM11123; Aggregatibacter actinomycetemcomitans (DSM 11123); anaerobic
Porphiromonas gingivalis = assay: MIC, broth dilution; format: cell-based; conditions: Porphiromonas gingivalis (DSM 20709); anaerobic
Parvimonas micra = assay: MIC, broth dilution; format: cell-based; conditions: DSM20468; Parvimonas micra (DSM 20468); anaerobic
Clostridium difficile = assay: MIC, broth dilution; format: cell-based; conditions: Clostridioides difficile, anaerobic
Excerpt: The Minimum Inhibitory Concentration (MIC) is defined as the lowest concentration expressed in mg/L (equivalent to μg/mL) of an antimicrobial ingredient or agent that is bacteriostatic (prevents the visible growth of bacteria). MICs are used to evaluate the antimicrobial efficacy of various compounds by measuring the effect of decreasing concentrations of antibiotic over a defined period in terms of inhibition of microbial population growth. MIC is generally regarded as the most basic laboratory measurement of the activity of an antimicrobial agent against an organism.
Antimicrobial characteristics of Rifamycin sodium salt was assessed on a panel of selected bacteria involved in pouchitis pathogenesis and a standard broth dilution method was used to determine the MIC of Rifamycin. Briefly, two-fold dilutions of the tested compounds were dispensed in 96 round bottom well plates, each dilution was processed in the liquid culture medium suitable for the tested bacterial species. Bacteria inocula were prepared by a suspension of the microbial strain in sterile water saline and adjusted to a concentration of 0.5McFarland standard corresponding to 1.5×10^8 CFU/ml. A final bacterial concentration of 0.5-1×10^5 CFU/ml was distributed in each well. […] MIC was recorded when there was visible growth in the positive growth control column (bacterial inoculum without test substance). […]

C. perfringens = assay: microbe, parasite or virus in culture; format: cell-based; conditions: Clostridium perfringens, DSM11783
Bacteroides fragilis = assay: MIC, broth dilution; format: cell-based; conditions: anaerobic
[2] = Rifamycin concentration in colon homogenates and plasma, HPLC/MS-MS; format: in vivo; conditions: rats, single enema of formulation 7639
Protocol: Briefly, rats were anesthetized and treated by enema with formulation 7639 (2 mL/rat) into the rectum by using a catheter. All rats were sacrificed by CO2 inhalation at the predetermined time points. After a single enema administration of 7639 formulation, the concentration of Rifamycin in colon homogenates and plasma was determined by HPLC/MS-MS in samples collected at various time points.

[3] = Rifamycin concentration in colon of DSS mice, HPLC MS/MS; format: in vivo; conditions: enema 67 mg/kg, all the tested time-points
Protocol: For this study, a group of mice was treated by enema with Batch 7663 (indicated as CB0125 in the figures) (dose 45 mg/kg), one group was treated by enema with Placebo Batch 7679 as a comparator for 7663; a group was treated by enema with Rifamycin powder dissolved in water (67 mg/kg). One group of mice was treated orally PO with 5-ASA at the dose of 100 mg/Kg; this group was introduced as positive control. 5-ASA is the golden standard therapy for inflammatory bowel diseases, including UC, distal UC and proctitis. One group was treated by enema with the vehicle (H2O) only, as negative control.
For PK analysis colon samples were cut into in pieces and washed 3 times with PBS to remove surface contaminants.

SMILES: CO[C@H]1/C=C/O[C@@]2(C)Oc3c(C)c(O)c4c(O)c(cc(O)c4c3C2=O)NC(=O)/C(C)=C\C=C\[C@H](C)[C@H](O)[C@@H](C)[C@@H](O)[C@@H](C)[C@H](OC(C)=O)[C@@H]1C [Rifamycin SV]
- MIC (K. pneumoniae; DSM16609, K. pneumoniae (DSM 16609)): > 64 µg/mL
- MIC (K. pneumoniae; DSM25721, K. pneumoniae (DSM 25721)): 64 µg/mL (≈ 91.7 µM)
- MIC (Escherichia coli; ATCC35218, Escherichia coli (ATCC 35218)): 50 µg/mL (≈ 71.7 µM)
- MIC (Escherichia coli; Escherichia coli, ATCC11775, E. coli (ATCC 11775)): 16 µg/mL (≈ 22.9 µM)
- MIC (Escherichia coli; Escherichia coli, ATCC25922, E. coli (ATCC 25922)): 64 µg/mL (≈ 91.7 µM)
- MIC (Escherichia coli; Escherichia coli, ATCC51446, E. coli (ATCC 51446)): 200 µg/mL (≈ 287 µM)
- MIC (Escherichia coli; Escherichia coli, DSM22312, E. coli (DSM 22312)): 32 µg/mL (≈ 45.9 µM)
- MIC (Escherichia coli; Escherichia coli, DSM22313, E. coli (DSM 22313 )): 64 µg/mL (≈ 91.7 µM)
- MIC (Escherichia coli; Escherichia coli, DSM22664, E. coli (DSM 22664 )): 32 µg/mL (≈ 45.9 µM)
- MIC (E. faecalis; ATCC29212, E. faecalis (ATCC 29212)): 50 µg/mL (≈ 71.7 µM)
- MIC (E. faecalis; DSM2570, E. faecalis (DSM 2570)): 200 µg/mL (≈ 287 µM)
- MIC (E. faecalis; DSM2921, E. faecalis (DSM 2921)): 64 µg/mL (≈ 91.7 µM)
- MIC (E. faecalis; DSM2981, E. faecalis (DSM 2981)): 200 µg/mL (≈ 287 µM)
- MIC (E. faecalis; DSM6134, E. faecalis (DSM 6134)): 50 µg/mL (≈ 71.7 µM)
- MIC (E. faecalis; E. faecalis (6172818861)): 12.5 µg/mL (≈ 17.9 µM)
- MIC (E. faecalis; E. faecalis (C 46)): 12.5 µg/mL (≈ 17.9 µM)
- MIC (E. faecalis; E. faecalis (E 83)): 3.12 µg/mL (≈ 4.47 µM)
- MIC (Bifidobacterium breve): 0.5 µg/mL (≈ 0.717 µM)
- MIC (B. bifidum): 1 µg/mL (≈ 1.43 µM)
- MIC (F. nucleatum; DSM15643, F. nucleatum (DSM 15643)): < 0.03 µg/mL
- MIC (F. nucleatum; DSM19507, F. nucleatum (DSM 19507)): 8 µg/mL (≈ 11.5 µM)
- MIC [1]: < 0.3 µg/mL
- MIC (Porphiromonas gingivalis): < 0.3 µg/mL
- MIC (Parvimonas micra): < 0.3 µg/mL
- MIC (Clostridium difficile; ATCC17857, C. difficile (ATCC 17857)): 0.00011 µg/mL (≈ 0.000158 µM)
- MIC (Clostridium difficile; ATCC43953, Clostridium difficile (ATCC 43953)): 0.007 µg/mL (≈ 0.01 µM)
- MIC (C. perfringens): < 0.03 µg/mL
- MIC (Bacteroides fragilis; Bacteroides fragilis, DSM1396, B. fragilis (DSM 1396)): 0.39 µg/mL (≈ 0.559 µM)
- MIC (Bacteroides fragilis; Bacteroides fragilis, DSM9668, B. fragilis (DSM 9668)): 100 µg/mL (≈ 143 µM)
- MIC (Bacteroides fragilis; Bacteroides fragilis, DSM9669, B. fragilis (DSM 9669)): 100 µg/mL (≈ 143 µM)
- MIC (Bacteroides fragilis; Bacteroides fragilis, DSM9670, B. fragilis (DSM 9670)): 50 µg/mL (≈ 71.7 µM)
- MIC (Bacteroides fragilis; Bacteroides fragilis, DSM9671, B. fragilis (DSM 9671)): 50 µg/mL (≈ 71.7 µM)
- MIC (Bacteroides fragilis; DSM2151, Bacteroides fragilis (DSM 2151)): 0.78 µg/mL (≈ 1.12 µM)
- concentration at 6 h ([2]; rat, colon homogenate, other: enema into the rectum, 2 mL/rat, 6 hrs after administration): 123 ng/g
- concentration in blood samples (LLOQ of the method) ([2]; 30 min., 1 h, 2 h, 4 h and 6 h): < 1 ng/mL
- Rifamycin concentration in the colon homogenate [3]: lower than that of the animals treated with formulation 7663
